Key:
[1] = test system: yeast atx1Δ; test: Respiratory growth rescue of atx1Δ yeast; assay type: cell-based, Saccharomyces cerevisiae; details: non-fermentable media, 37° C.
Protocol: Yeast Strains and Culture Conditions. The authenticity of yeast strains was confirmed by PCR as well as by replica plating on dropout plates. Yeast cells were cultured in standard YP growth media including YPD (1% yeast extract, 2% peptone and 2% glucose), YPGal (2% galactose), YPGE (3% glycerol+1% ethanol), or synthetic media (SC glucose). For qualitative growth measurement, 10-fold serial dilutions of overnight cultures were spotted on YPD or YPGE plates and incubated at 30° C. and 37° C. for the indicated period. Growth in liquid media was measured spectrophotometrically at 600 nm.
ES Rescues Many Different Yeast Mutants with Impaired Copper Metabolism. To test the specificity of ES mediated rescue, a number of yeast mutants of genes required for maintaining cellular and mitochondrial copper homeostasis were shortlisted. Genes were prioritized based on their evolutionary conservation, presence of pathogenic mutations in humans, and/or the existence of a related mouse phenotype (Table 3, shown below). […] Most of the yeast mutants were rescued with ES supplementation, albeit to different degrees, reflecting their distinct roles in cellular and mitochondrial copper homeostasis. […]

[2] = multiple human clinical trials; cited from earlier work
[3] = test system: coa6Δpic2Δ cells; test: Respiratory growth rescue of coa6Δpic2Δ yeast; assay type: cell-based, Saccharomyces cerevisiae; details: ES supplementation
Protocol: To further corroborate that ES increases mitochondrial copper levels by actively transporting extracellular copper into the cells, copper availability in the extracellular compartment was decreased by co-treatment of ES with a known copper chelator, bathocuproine disulfonate (BCS). […] To determine whether ES is able to bypass a mitochondrial copper transporter, Pic2, ES supplementation in pic2Δ and coa6Δpic2Δ cells was performed.

[4] = test system: mottled-brindled (mo-br) mouse; test: Survival of Menkes (mo-br) mice after subcutaneous injections; assay type: in vivo
Protocol: Kaplan-Meier Survival of mice after subcutaneous injections of ES-Cu(II) on postnatal days 7 and 10. Log-Rank statistical analysis was conducted to assess significance of survival among mo-br mice cohorts. Mo-br mice treated with 3.625 mg/kg/dose.
FIG. 8 illustrates mean body weight gain of mice after subcutaneous injections on postnatal days 7 and 10. Cohorts and number of mice/cohort are designated as follows: WT vehicle (n=13), WT Cu(II)-ES (n=12), mo-br vehicle (n=9), mo-br Cu(II)-ES (n=27), mo-br Cu(II)-2His (n=6), and mo-br ES (n=6). Growth curves are reported as the mean of each cohort±SD measured weekly.
To evaluate the potential of Cu(II)-ES in a mouse model of human copper deficiency disorder, the well-characterized mottled-brindled (mo-br) mouse model (C57BL/6-Atp7a^mo-br/J, Jackson Laboratory Stock #002566) that closely mimics the clinical and biochemical phenotypes of Menkes disease was chosen. Like in humans, these mice are characterized by mutation in ATP7a, which is an X-linked gene and therefore its mutation only affects males.

[5] = test system: Ctr1^−/− zebrafish embryos; test: Pigmentation defect in embryos from Ctr1 heterozygous zebrafish crosses; assay type: in vivo
Protocol: Zebrafish Experiments. […] Morpholino-based experiments were performed.
ES Supplementation Rescues Copper Deficiency Phenotypes in Zebrafish Models. To determine whether ES can rescue phenotypes associated with copper deficiency in an intact developing vertebrate animal model, zebrafish embryos with a null mutation in the gene encoding the plasma membrane copper importer Ctr1 were utilized. Zebrafish were chosen because of the ability to quickly monitor the pigmentation defect that arises due to the copper requirement of tyrosinase, an enzyme that catalyzes the critical step in melanin biosynthesis. Wild type zebrafish embryos have a characteristic melanin pigmentation pattern visible at 48 hpf. […] […] To determine whether ES can rescue the observed CcO assembly defect, clutches of embryos were grown from heterozygous Ctr1 crosses in the presence of ES until 10 dpf and levels of Cox1 in their mitochondrial extracts were measured.

In the case of CN(NC(=O)CC(=O)NN(C)C(=S)c1ccccc1)C(=S)c1ccccc1 [ES, elesclomol], the “rescue of respiratory growth” value [1] is listed as “rescue”, the toxicity profile [2] is listed as “favorable toxicity profile” and the “rescue of respiratory growth” value [3] is listed as “did rescue”. The mean survival time ([4]; mouse, in vivo) was 17.0 ± 0.9 days, the “weekly time point by which all mice of the cohort had expired” value ([4]; subcutaneous, postnatal days 7 and 10) was at most 2 week and the “melanin pigmentation at 48 hpf” value ([5]; 10 nM ES from 3 hpf) was “all of the ES treated embryos from the same crosses were pigmented”. The “rescue of the pigmentation defect” value ([5]; 100 nM ES or the equivalent dose of copper) was “rescue of the pigmentation defect”.
